The data set can be described thus: recombinant UMI read abundance after kanamycin selection (control-corrected) (log10(CPM+1)); higher = more efficient recombination; extreme values may be limits of the assay; sequences stand for … in AGTGCAGAGAAAATCGGCCAGTTTTCTCTGCCTGCAGTCCGCATGCCGTGGGACCCCTTGGGTTCTAACCTGTTGCCTAGATTTATGCAGCGGACTGCCTTTCTCCCAAAGTGATAAACCGG…AGGTTGGTTTCACT; site = the 11-nt donor. Summed up: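 Reported values are log10(CPM+1) from a pooled Escherichia coli screen of donor and donor-binding-loop pairs for the IS621 bridge recombinase. Selection used IPTG (0.07 mM) plus kanamycin, against unselected plating, each in two replicates. Recombinant UMIs were amplified across the donor–target junction, sequenced, converted to CPM, averaged over replicates and scaled by control-derived factors.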
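Note: IS621 bridge recombinase in Escherichia coli cells against a fixed T5 target plasmid.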

As for “TGCAAGGCATGGACCGGTTTTCCCGGTAATCCGTATTTGGT (site TGCGAGGCTAC)”, the “recombinant UMI read abundance (log10)” value turned out to be 0.0243.

For the sequence “TGCAAGGCATGGACCGGTTTTCCCGGTAATCCGTATTTGGT (site TGCTAGGCTAC)”, the “recombinant UMI read abundance (log10)” value was found to be 0.0166.

As to “TGCAATCCATGGACCGGTTTTCCCGGTAATCCGTATTTGTT (site CGGAATCCTAA)”, the “recombinant UMI read abundance (log10)” value came to 0.0106.

As for “TGCAATCCATGGACCGGTTTTCCCGGTAATCCGTATTTGTT (site TGCAATCCTAA)”, the “recombinant UMI read abundance (log10)” value was found to be 0.672.

On to “TGCAATTCATGGACCGGTTTTCCCGGTAATCCGTATTTGCC (site TACAATTCTGG)”, for which the “recombinant UMI read abundance (log10)” value was 0.

For “TGCAATTCATGGACCGGTTTTCCCGGTAATCCGTATTTGCC (site TCCAATTCTGG)”, the “recombinant UMI read abundance (log10)” value was 0.

As for “TGCAATTCATGGACCGGTTTTCCCGGTAATCCGTATTTGCC (site TGCAATTCTGG)”, the “recombinant UMI read abundance (log10)” value came out at 0.00516.

For the sequence “TGCAATTCATGGACCGGTTTTCCCGGTAATCCGTATTTGCC (site TTCAATTCTGG)”, the “recombinant UMI read abundance (log10)” value was found to be 0.

Turning to “TGCACGACATGGACCGGTTTTCCCGGTAATCCGTATTTGCC (site TGCACGACTGG)”, the “recombinant UMI read abundance (log10)” value was determined as 1.52.

With “TGCACGTCATGGACCGGTTTTCCCGGTAATCCGTATTTGTC (site TGCACGTCTGA)”, the “recombinant UMI read abundance (log10)” value stood at 1.26.

Regarding “TGCACTGCATGGACCGGTTTTCCCGGTAATCCGTATTTGCA (site TGCACTGCTTG)”, the “recombinant UMI read abundance (log10)” value was 0.198.

On to “TGCCACGCATGGACCGGTTTTCCCGGTAATCCGTATTTGTC (site TGCCACGCTGA)”, for which the “recombinant UMI read abundance (log10)” value stood at 2.07.

Consider “TGCCAGGCATGGACCGGTTTTCCCGGTAATCCGTATTTGGT (site TGCAAGGCTAC)”, for which the “recombinant UMI read abundance (log10)” value came out at 0.016.

For the sequence “TGCCAGGCATGGACCGGTTTTCCCGGTAATCCGTATTTGGT (site TGCCAGGCTAC)”, the “recombinant UMI read abundance (log10)” value came to 0.00408.

As for “TGCCAGGCATGGACCGGTTTTCCCGGTAATCCGTATTTGGT (site TGCGAGGCTAC)”, the “recombinant UMI read abundance (log10)” value turned out to be 0.0315.

For “TGCCAGGCATGGACCGGTTTTCCCGGTAATCCGTATTTGGT (site TGCTAGGCTAC)”, the “recombinant UMI read abundance (log10)” value stood at 0.0336.

With “TGCCATGCATGGACCGGTTTTCCCGGTAATCCGTATTTGGA (site TGCCATGCTTC)”, the “recombinant UMI read abundance (log10)” value was 0.294.

Consider “TGCCGAACATGGACCGGTTTTCCCGGTAATCCGTATTTGAT (site TGCCGAACTAT)”, for which the “recombinant UMI read abundance (log10)” value worked out at 1.59.

For “TGCCGACCATGGACCGGTTTTCCCGGTAATCCGTATTTGTT (site TGCCGACCTAA)”, the “recombinant UMI read abundance (log10)” value was determined as 0.0263.

On to “TGCCGTTCATGGACCGGTTTTCCCGGTAATCCGTATTTGAG (site TGCCGTTCTCT)”, for which the “recombinant UMI read abundance (log10)” value was determined as 0.00558.

In the case of “TGCCTAACATGGACCGGTTTTCCCGGTAATCCGTATTTGAA (site TGCCTAACTTT)”, the “recombinant UMI read abundance (log10)” value was 0.0425.

As to “TGCCTAGCATGGACCGGTTTTCCCGGTAATCCGTATTTGTT (site AGCCTAGCTAA)”, the “recombinant UMI read abundance (log10)” value worked out at 0.014.

Turning to “TGCCTAGCATGGACCGGTTTTCCCGGTAATCCGTATTTGTT (site CGCCTAGCTAA)”, the “recombinant UMI read abundance (log10)” value was 0.0169.

For “TGCCTAGCATGGACCGGTTTTCCCGGTAATCCGTATTTGTT (site GGCCTAGCTAA)”, the “recombinant UMI read abundance (log10)” value worked out at 0.0245.

Consider “TGCCTAGCATGGACCGGTTTTCCCGGTAATCCGTATTTGTT (site TGCCTAGCTAA)”, for which the “recombinant UMI read abundance (log10)” value was found to be 0.0135.

With “TGCCTCTCATGGACCGGTTTTCCCGGTAATCCGTATTTGCG (site TGCCTCTCTCG)”, the “recombinant UMI read abundance (log10)” value was 0.00512.

Regarding “TGCGAGGCATGGACCGGTTTTCCCGGTAATCCGTATTTGGT (site TGCAAGGCTAC)”, the “recombinant UMI read abundance (log10)” value is 0.35.

As to “TGCGAGGCATGGACCGGTTTTCCCGGTAATCCGTATTTGGT (site TGCCAGGCTAC)”, the “recombinant UMI read abundance (log10)” value was 0.0134.

For the sequence “TGCGAGGCATGGACCGGTTTTCCCGGTAATCCGTATTTGGT (site TGCGAGGCTAC)”, the “recombinant UMI read abundance (log10)” value came out at 0.0084.

As to “TGCGAGGCATGGACCGGTTTTCCCGGTAATCCGTATTTGGT (site TGCTAGGCTAC)”, the “recombinant UMI read abundance (log10)” value came out at 0.242.

As for “TGCGGAACATGGACCGGTTTTCCCGGTAATCCGTATTTGCG (site TGCGGAACTCG)”, the “recombinant UMI read abundance (log10)” value came out at 0.885.

With “TGCGGCACATGGACCGGTTTTCCCGGTAATCCGTATTTGCC (site TGCGGCACTGG)”, the “recombinant UMI read abundance (log10)” value is 1.44.

As for “TGCGGCACATGGACCGGTTTTCCCGGTAATCCGTATTTGGA (site TGCGGCACTTC)”, the “recombinant UMI read abundance (log10)” value was found to be 0.0197.

For the sequence “TGCGGGCCATGGACCGGTTTTCCCGGTAATCCGTATTTGCT (site TGCGGGCCTAG)”, the “recombinant UMI read abundance (log10)” value was 0.

Regarding “TGCGGTTCATGGACCGGTTTTCCCGGTAATCCGTATTTGAA (site TGCGGTTCTTT)”, the “recombinant UMI read abundance (log10)” value stood at 0.557.

As for “TGCTACGCATGGACCGGTTTTCCCGGTAATCCGTATTTGGT (site TGCTAAGCTAC)”, the “recombinant UMI read abundance (log10)” value came out at 0.00535.

“TGCTACGCATGGACCGGTTTTCCCGGTAATCCGTATTTGGT (site TGCTACGCTAC)”: the “recombinant UMI read abundance (log10)” value worked out at 0.202.

Turning to “TGCTACGCATGGACCGGTTTTCCCGGTAATCCGTATTTGGT (site TGCTAGGCTAC)”, the “recombinant UMI read abundance (log10)” value amounted to 0.

As to “TGCTACGCATGGACCGGTTTTCCCGGTAATCCGTATTTGGT (site TGCTATGCTAC)”, the “recombinant UMI read abundance (log10)” value worked out at 0.00567.

In the case of “TGCTAGCCATGGACCGGTTTTCCCGGTAATCCGTATTTGGT (site TGCTAGACTAC)”, the “recombinant UMI read abundance (log10)” value was determined as 0.00818.

With “TGCTAGCCATGGACCGGTTTTCCCGGTAATCCGTATTTGGT (site TGCTAGCCTAC)”, the “recombinant UMI read abundance (log10)” value was determined as 0.0034.

With “TGCTAGCCATGGACCGGTTTTCCCGGTAATCCGTATTTGGT (site TGCTAGGCTAC)”, the “recombinant UMI read abundance (log10)” value amounted to 0.0165.

As for “TGCTAGCCATGGACCGGTTTTCCCGGTAATCCGTATTTGGT (site TGCTAGTCTAC)”, the “recombinant UMI read abundance (log10)” value was determined as 0.00984.

Regarding “TGCTAGGCATGGACCGGTTTTCCCGGTAATCCGTATTTGCT (site TGCTAGGCTAA)”, the “recombinant UMI read abundance (log10)” value turned out to be 0.0205.

As for “TGCTAGGCATGGACCGGTTTTCCCGGTAATCCGTATTTGCT (site TGCTAGGCTAC)”, the “recombinant UMI read abundance (log10)” value came out at 0.0125.

In the case of “TGCTAGGCATGGACCGGTTTTCCCGGTAATCCGTATTTGCT (site TGCTAGGCTAG)”, the “recombinant UMI read abundance (log10)” value is 0.521.

With “TGCTAGGCATGGACCGGTTTTCCCGGTAATCCGTATTTGCT (site TGCTAGGCTAT)”, the “recombinant UMI read abundance (log10)” value came to 0.00772.

With “TGCTAGGCATGGACCGGTTTTCCCGGTAATCCGTATTTGGA (site TGCTAGGCTAC)”, the “recombinant UMI read abundance (log10)” value was determined as 0.138.

For the sequence “TGCTAGGCATGGACCGGTTTTCCCGGTAATCCGTATTTGGA (site TGCTAGGCTCC)”, the “recombinant UMI read abundance (log10)” value came out at 0.0137.

Take “TGCTAGGCATGGACCGGTTTTCCCGGTAATCCGTATTTGGA (site TGCTAGGCTGC)”: the “recombinant UMI read abundance (log10)” value was found to be 0.

For the sequence “TGCTAGGCATGGACCGGTTTTCCCGGTAATCCGTATTTGGA (site TGCTAGGCTTC)”, the “recombinant UMI read abundance (log10)” value was 0.261.

As for “TGCTAGGCATGGACCGGTTTTCCCGGTAATCCGTATTTGGC (site TGCTAGGCTAC)”, the “recombinant UMI read abundance (log10)” value was 0.0365.

As to “TGCTAGGCATGGACCGGTTTTCCCGGTAATCCGTATTTGGC (site TGCTAGGCTCC)”, the “recombinant UMI read abundance (log10)” value was determined as 0.013.

With “TGCTAGGCATGGACCGGTTTTCCCGGTAATCCGTATTTGGC (site TGCTAGGCTGC)”, the “recombinant UMI read abundance (log10)” value was 0.

Turning to “TGCTAGGCATGGACCGGTTTTCCCGGTAATCCGTATTTGGC (site TGCTAGGCTTC)”, the “recombinant UMI read abundance (log10)” value amounted to 0.0105.

Regarding “TGCTAGGCATGGACCGGTTTTCCCGGTAATCCGTATTTGTT (site TGCTAGGCTAA)”, the “recombinant UMI read abundance (log10)” value turned out to be 0.282.

As to “TGCTAGGCATGGACCGGTTTTCCCGGTAATCCGTATTTGTT (site TGCTAGGCTAC)”, the “recombinant UMI read abundance (log10)” value amounted to 0.00683.

Turning to “TGCTAGGCATGGACCGGTTTTCCCGGTAATCCGTATTTGTT (site TGCTAGGCTAG)”, the “recombinant UMI read abundance (log10)” value was 0.00242.

Consider “TGCTAGGCATGGACCGGTTTTCCCGGTAATCCGTATTTGTT (site TGCTAGGCTAT)”, for which the “recombinant UMI read abundance (log10)” value is 0.

Regarding “TGCTGCCCATGGACCGGTTTTCCCGGTAATCCGTATTTGTC (site TGCTGCCCTGA)”, the “recombinant UMI read abundance (log10)” value turned out to be 0.338.

As to “TGGAACCCATGGACCGGTTTTCCCGGTAATCCGTATTTGTT (site CGGAATCCTAA)”, the “recombinant UMI read abundance (log10)” value was found to be 0.

With “TGGAACCCATGGACCGGTTTTCCCGGTAATCCGTATTTGTT (site TGGAACCCTAA)”, the “recombinant UMI read abundance (log10)” value is 1.15.

For the sequence “TGGAAGACATGGACCGGTTTTCCCGGTAATCCGTATTTGTA (site AGGAAGACTTG)”, the “recombinant UMI read abundance (log10)” value turned out to be 0.00598.

For “TGGAAGACATGGACCGGTTTTCCCGGTAATCCGTATTTGTA (site TGGAAGACTTA)”, the “recombinant UMI read abundance (log10)” value was determined as 2.36.

In the case of “TGGAAGTCATGGACCGGTTTTCCCGGTAATCCGTATTTGGC (site TGGAAGTCTGC)”, the “recombinant UMI read abundance (log10)” value is 2.31.

“TGGAATACATGGACCGGTTTTCCCGGTAATCCGTATTTGTG (site TGGAATACTCA)”: the “recombinant UMI read abundance (log10)” value was determined as 1.12.

Turning to “TGGAATCCATGGACCGGTTTTCCCGGTAATCCGTATTTGGT (site CGGAATCCTAA)”, the “recombinant UMI read abundance (log10)” value is 0.

For the sequence “TGGAATCCATGGACCGGTTTTCCCGGTAATCCGTATTTGGT (site TGGAATCCTAC)”, the “recombinant UMI read abundance (log10)” value was 0.

These data come from the supplement of paper PMC11208160.
